Laboratory results as given in patent publication US6335013B1, “Methods and materials relating to CD39-like polypeptides” (Hyseq, Inc., priority 1999, dated 2002).
Changes are numbered by the printed parent chain. One block for each molecule: values may come before it.

How the values were obtained:
CD39-L2 [1] = test: Substrate (nucleotide) specificity of CD39-L2, inorganic phosphate release; assay type: biochemical, human; settings: for % OF CONTROL, substrate specificity of CD39-L2: relative to ADP, nucleotide 1 mM, buffer A with 1 mM EGTA, 3 mM CaCl2 and 3 mM MgCl2, 37° C., 30 min; for enzymatic activity relative to ADP hydrolysis: assays repeated with 15 mM ADP and 15 mM CaCl2
CD39-L4 [2] = molecular target: T1, CD39-L4 (Homo sapiens, UniProt O75356); test: Substrate (nucleotide) specificity of CD39-L4, inorganic phosphate release; assay type: biochemical; settings: nucleotide 1 mM; for % OF CONTROL, substrate specificity of CD39-L4: relative to ADP, buffer A with 1 mM EGTA, 2 mM CaCl2 and MgCl2
T1 construct: to allow purification of the secreted mature form of the protein; made in house; host or cells: COS-7 cells, transient transfection (pcDNA3.1); protein captured from the medium on Nickel-NTA resin
T1 sequence (O75356 25-428): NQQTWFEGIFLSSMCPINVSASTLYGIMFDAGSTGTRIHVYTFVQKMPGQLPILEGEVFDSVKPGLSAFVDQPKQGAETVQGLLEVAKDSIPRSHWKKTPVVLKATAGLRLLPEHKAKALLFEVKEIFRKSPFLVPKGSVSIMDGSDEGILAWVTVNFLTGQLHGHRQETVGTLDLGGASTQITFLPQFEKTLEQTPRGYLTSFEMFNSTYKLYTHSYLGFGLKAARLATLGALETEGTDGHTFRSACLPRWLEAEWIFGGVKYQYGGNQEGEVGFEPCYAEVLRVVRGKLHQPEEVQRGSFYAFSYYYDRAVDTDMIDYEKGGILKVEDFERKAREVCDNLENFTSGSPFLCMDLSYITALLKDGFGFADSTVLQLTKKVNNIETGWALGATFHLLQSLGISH

CD39-L2 [3] = test: Inhibition of CD39-L2 ADPase activity by ATPase/phosphatase inhibitors and chelators; assay type: biochemical, human; settings: concentrations as in Table 3
CD39-L4 [4] = molecular target: T1, CD39-L4; test: Inhibition of CD39-L4 ADPase activity by ATPase/phosphatase inhibitors and chelators; assay type: biochemical; settings: concentrations as in Table 1
[5] = molecular target: the molecule itself; test: Western blot of SDS-PAGE, self-association (dimer)
[6] = ADPase and ATPase activity of CD39L4 wild type and ACR mutants, inorganic phosphate released; assay type: biochemical
[7] = ADPase activity of CD39-L2 from transfected COS-7 cells, stimulation by divalent cations and Ca2+ titration; assay type: biochemical
[8] = Kinetic characteristics of CD39-L2 ADP hydrolysis; assay type: biochemical
[9] = 15 mM CaCl2, ADP 0.75-18 mM, 15 min, 37° C.

Molecule: Nc1ncnc2c1ncn2[C@@H]1O[C@H](COP(=O)(O)OP(=O)(O)OP(=O)(O)O)[C@@H](O)[C@H]1O [ATP, Adenosine triphosphate]
% OF CONTROL, substrate specificity of CD39-L2 (CD39-L2 [1]): 16 ± 2%
hydrolysis of the nucleotide by CD39-L4, in words (CD39-L4 [2]): poorest substrate
% OF CONTROL, substrate specificity of CD39-L4 (CD39-L4 [2]): 5 ± 1%

Molecule: Nc1ncnc2c1ncn2[C@@H]1O[C@H](COP(=O)(O)OP(=O)(O)OP(=O)(O)OP(=O)(O)OP(=O)(O)OC[C@H]2O[C@@H](n3cnc4c(N)ncnc43)[C@H](O)[C@@H]2O)[C@@H](O)[C@H]1O [Ap5A]
inhibition of CD39-L2 ADPase activity, in words (CD39-L2 [3]): did not inhibit activity
inhibition of Ca2+ and Mg2+ stimulated CD39-L4 ADPase activity, in words (CD39-L4 [4]): did not inhibit activity

Molecule: [N-]=[N+]=[N-] [N3^−]
inhibition of CD39-L2 ADPase activity, in words (CD39-L2 [3]): not inhibited
inhibition of Ca2+ and Mg2+ stimulated CD39-L4 ADPase activity, in words (CD39-L4 [4]): did not significantly inhibit

Molecule: CCN1C(=O)C=CC1=O [NEM]
inhibition of CD39-L2 ADPase activity, in words (CD39-L2 [3]): not inhibited
inhibition of Ca2+ and Mg2+ stimulated CD39-L4 ADPase activity, in words (CD39-L4 [4]): did not significantly inhibit

Molecule: C[C@@H]1O[C@@H](O[C@H]2C[C@@H](O)[C@]3(CO)[C@H]4[C@H](O)C[C@]5(C)[C@@H](C6=CC(=O)OC6)CC[C@]5(O)[C@@H]4CC[C@]3(O)C2)[C@H](O)[C@H](O)[C@H]1O [Ouabain]
inhibition of CD39-L2 ADPase activity, in words (CD39-L2 [3]): not inhibited
inhibition of Ca2+ and Mg2+ stimulated CD39-L4 ADPase activity, in words (CD39-L4 [4]): did not significantly inhibit

B1: CD39L4 Cys39 to Ser mutant with a myc epitope and a 6 His tag at the C-terminus (enzyme, not shown: small tags and cut ends)
chain: HRNQQTWFEGIFLSSMSPINVSASTLYGIMFDAGSTGTRIHVYTFVQKMPGQLPILEGEVFDSVKPGLSAFVDQPKQGAETVQGLLEVAKDSIPRSHWKKTPVVLKATAGLRLLPEHKAKALLFEVKEIFRKSPFLVPKGSVSIMDGSDEGILAWVTVNFLTGQLHGHRQETVGTLDLGGASTQITFLPQFEKTLEQTPRGYLTSFEMFNSTYKLYTHSYLGFGLKAARLATLGALETEGTDGHTFRSACLPRWLEAEWIFGGVKYQYGGNQEGEVGFEPCYAEVLRVVRGKLHQPEEVQRGSFYAFSYYYDRAVDTDMIDYEKGGILKVEDFERKAREVCDNLENFTSGSPFLCMDLSYITALLKDGFGFADSTVLQLTKKVNNIETGWALGATFHLLQSLGISH
notes: also called Ser39 mutant; cys-mutant CD39L4
binding result [5]: no binding

B2: CD39L4 Cys39 to Ala mutant with a myc epitope and a 6 His tag at the C-terminus (enzyme, not shown: small tags and cut ends)
chain: B1 chain with S17A
notes: also called Ala39 mutant; cys-mutant CD39L4
binding result [5]: no binding

B4: CD39-L2myc-His (protein)
chain: MKKGIRYETSRKTSYIFQQPQHGPWQTRMRKISNHGSLRVAKVAYPLGLCVGVFIYVAYIKWHRATATQAFFSITRAAPGARWGQQAHSPLGTAADGHEVFYGIMFDAGSTGTRVHVFQFTRPPRETPTLTHETFKAVKPGLSAYADDVEKSAQGIRELLDVAKQDIPFDFWKATPLVLKATAGLRLLPGEKAQKLLQKVKEVFKASPFLVGDDCVSIMNGTDEGVSAWITINFLTGSLKTPGGSSVGMLDLGGGSTQIAFLPRVEGTLQASPPGYLTALRMFNRTYKLYSYSYLGLGLMSARLAILGGVEGQPAKDGKELVSPCLSPSFKGEWEHAEVTYRVSGQKAAASLHELCAARVSEVLQNRVHRTEEVKHVDFYAFSYYYDLAAGVGLIDAEKGGSLVVGDFEIAAKYVCRTLETQPQSSPFSCMDLTYVSLLLQEFGFPRSKVLKLTRKIDNVETSWALGAIFHYIDSLNRQKSPAS
stimulation of ADPase activity by Ca2+ ([7]; 15 mM ADP, CaCl2 added to 15 mM): 17 fold
stimulation of ADPase activity by Mg2+ ([7]; 15 mM ADP, MgCl2 added to 15 mM): 8 fold
fold increase in ADPase activity over cells transfected with vector alone ([7]; CD39-L2myc-His from COS-7 medium on Nickel-NTA resin, 1 mM ADP, no added cation): 8.7 fold
further fold increase in ADPase activity when Ca2+ and Mg2+ added ([7]; Ca2+ and Mg2+ added, 1 mM ADP): 2-3 fold
effect of high Ca2+ concentration on ADPase activity ([7]; CaCl2 2-15 mM, low substrate concentration, 37° C., 20 min): no inhibitory effect
K (Hill's Equation) [8, 9]: 364.5
cooperativity, n (Hill's Equation) [8, 9]: 2.48
Vmax of ADP hydrolysis ([8]; 15 mM CaCl2, ADP 0.75-18 mM, 15 min, 37° C., 3.5 ng protein per reaction): 1028 pmol/min
substrate at half-maximal velocity [S]0.5 ([8]; [S]0.5=K^1/n): 10.6 mM

Now from value to molecule, other results behind:

% OF CONTROL, substrate specificity of CD39-L4 (CD39-L4 [2]): 100 ± 15%
Molecule: Nc1ncnc2c1ncn2[C@@H]1O[C@H](COP(=O)(O)OP(=O)(O)O)[C@@H](O)[C@H]1O [ADP, Adenosine diphosphate]
% OF CONTROL, substrate specificity of CD39-L2 (CD39-L2 [1]): 100 ± 8%
rate of ADP hydrolysis by CD39-L4 relative to ATP (CD39-L4 [2]): approximately twenty-fold higher than ATP

% OF CONTROL, substrate specificity of CD39-L4 (CD39-L4 [2]): 268 ± 11%
Molecule: Nc1ccn([C@@H]2O[C@H](COP(=O)(O)OP(=O)(O)O)[C@@H](O)[C@H]2O)c(=O)n1 [CDP]
enzymatic activity relative to ADP hydrolysis (CD39-L2 [1]): 73%
% OF CONTROL, substrate specificity of CD39-L2 (CD39-L2 [1]): 282 ± 18%

% OF CONTROL, substrate specificity of CD39-L4 (CD39-L4 [2]): 26 ± 2%
Molecule: Nc1ccn([C@@H]2O[C@H](COP(=O)(O)OP(=O)(O)OP(=O)(O)O)[C@@H](O)[C@H]2O)c(=O)n1 [CTP]
% OF CONTROL, substrate specificity of CD39-L2 (CD39-L2 [1]): 44 ± 4%

inhibition of Ca2+ and Mg2+ stimulated CD39-L4 ADPase activity, in words (CD39-L4 [4]): significantly inhibited activity
Molecule: O=C(O)CN(CCN(CC(=O)O)CC(=O)O)CC(=O)O [EDTA]
inhibition of CD39-L2 ADPase activity, in words (CD39-L2 [3]): inhibited CD39-L2 activity

inhibition of Ca2+ and Mg2+ stimulated CD39-L4 ADPase activity, in words (CD39-L4 [4]): significantly inhibited activity
Molecule: O=C(O)CN(CCOCCOCCN(CC(=O)O)CC(=O)O)CC(=O)O [EGTA]
inhibition of CD39-L2 ADPase activity, in words (CD39-L2 [3]): inhibited CD39-L2 activity

inhibition of Ca2+ and Mg2+ stimulated CD39-L4 ADPase activity, in words (CD39-L4 [4]): did not inhibit activity
Molecule: F [F^−]
inhibition of CD39-L2 ADPase activity, in words (CD39-L2 [3]): partially inhibited activity

hydrolysis of the nucleotide by CD39-L4, in words (CD39-L4 [2]): very efficiently hydrolyzed
% OF CONTROL, substrate specificity of CD39-L4 (CD39-L4 [2]): 334 ± 38%
Molecule: Nc1nc2c(ncn2[C@@H]2O[C@H](COP(=O)(O)OP(=O)(O)O)[C@@H](O)[C@H]2O)c(=O)[nH]1 [GDP]
enzymatic activity relative to ADP hydrolysis (CD39-L2 [1]): 280%
% OF CONTROL, substrate specificity of CD39-L2 (CD39-L2 [1]): 338 ± 52%

% OF CONTROL, substrate specificity of CD39-L4 (CD39-L4 [2]): 34 ± 1%
Molecule: Nc1nc2c(ncn2[C@@H]2O[C@H](COP(=O)(O)OP(=O)(O)OP(=O)(O)O)[C@@H](O)[C@H]2O)c(=O)[nH]1 [GTP]
% OF CONTROL, substrate specificity of CD39-L2 (CD39-L2 [1]): 39 ± 1%

hydrolysis of the nucleotide by CD39-L4, in words (CD39-L4 [2]): very efficiently hydrolyzed
% OF CONTROL, substrate specificity of CD39-L4 (CD39-L4 [2]): 408 ± 14%
Molecule: O=c1ccn([C@@H]2O[C@H](COP(=O)(O)OP(=O)(O)O)[C@@H](O)[C@H]2O)c(=O)[nH]1 [UDP]
enzymatic activity relative to ADP hydrolysis (CD39-L2 [1]): 228%
% OF CONTROL, substrate specificity of CD39-L2 (CD39-L2 [1]): 303 ± 5%

% OF CONTROL, substrate specificity of CD39-L4 (CD39-L4 [2]): 12 ± 4%
Molecule: O=c1ccn([C@@H]2O[C@H](COP(=O)(O)OP(=O)(O)OP(=O)(O)O)[C@@H](O)[C@H]2O)c(=O)[nH]1 [UTP]
% OF CONTROL, substrate specificity of CD39-L2 (CD39-L2 [1]): 13 ± 1%

hydrolysis of ADP, in words ([6]; ADP as substrate): hydrolyze ADP
B3: ACR III: variant CD39-L4 with substitutions D168→T, S170→Q and L175→F (protein)
chain: MATSWGTVFFMLVVSCVCSAVSHRNQQTWFEGIFLSSMCPINVSASTLYGIMFDAGSTGTRIHVYTFVQKMPGQLPILEGEVFDSVKPGLSAFVDQPKQGAETVQGLLEVAKDSIPRSHWKKTPVVLKATAGLRLLPEHKAKALLFEVKEIFRKSPFLVPKGSVSIMTGQDEGIFAWVTVNFLTGQLHGHRQETVGTLDLGGASTQITFLPQFEKTLEQTPRGYLTSFEMFNSTYKLYTHSYLGFGLKAARLATLGALETEGTDGHTFRSACLPRWLEAEWIFGGVKYQYGGNQEGEVGFEPCYAEVLRVVRGKLHQPEEVQRGSFYAFSYYYDRAVDTDMIDYEKGGILKVEDFERKAREVCDNLENFTSGSPFLCMDLSYITALLKDGFGFADSTVLQLTKKVNNIETGWALGATFHLLQSLGISH
hydrolysis of ATP, in words ([6]; ATP as substrate): neither the CD39L4 nor the CD39L4 mutant, ACR III, catalyzed hydrolysis
ADPase activity compared to wild type CD39-L4 ([6]; protein from COS-7 medium, 1 mM ADP, increase due to amount of protein, not specific activity): six-fold over wild type
